Entries after “also recorded” stand apart in the source; their conditions may differ.
Experiments:
[1] = tested on: HeLa cells (cervix adenocarcinoma); test: MTT cytotoxicity assay, HeLa; format: cell-based, human; settings: for IC50: Homo sapiens, HeLa, MTT, 48 h incubation, triplicate, average ± SD; for Selectivity Index (SI) HeLa: ratio of IC50 WI-26VA4 and IC50 HeLa
Description: (§1) The cytotoxicity of the compounds was assessed with the human cell lines, HeLa (cervix adenocarcinoma ATCC# CCl-2), RKO-AS-45-1 (colon carcinoma ATCC# CRL-2579) and WI-26 VA4 (fibroblast ATCC# CCL-95.1) using the MTT (3-(4,5-dimethylthiazol-2-yl)-2,5-diphenyltetrazolium bromide) (Sigma, St. Louis, MO, USA) colorimetric method. Briefly, the cells were plated in 96-well plates (1 × 10^5 cells/well) and incubated for 24 h at 37 °C in a humidified atmosphere with 5% CO2. After 24 h, the wells were washed with culture medium (RPMI +10% inactivated fetal calf serum + 2 mM L-glutamine) and incubated with the compounds at various concentrations (0.05 to 500 μM). After 48 h of incubation, the plates were treated with MTT. The colorimetric measurement was performed at 550 nm using the microplate reader, Spectramax M5e (Molecular Devices, Sunnyvale, CA, USA). Cytotoxicity was scored as the percent reduction in absorbance versus untreated control cultures. All experiments were performed in triplicate. The results are expressed as the mean of the IC50 (the lethal drug concentration that reduced cell viability by 50%). The IC50 values were calculated using OriginPro 8.0 (OriginLab Corporation, Northampton, MA, USA) software. A selectivity index (SI), corresponding to the ratio between the cytotoxic activities of each compound against the HeLa and RKO-AS-45-1 cell lines and the cytotoxicity against WI-26 VA4, was calculated as follows: […]

[2] = tested on: RKO-AS-45-1 cells (colon carcinoma); test: MTT cytotoxicity assay, RKO-AS-45-1; format: cell-based, human; settings: for IC50: Homo sapiens, RKOAS451, MTT, 48 h incubation, triplicate, average ± SD; for Selectivity Index (SI) RKO AS-45-1: ratio of IC50 WI-26VA4 and IC50 RKO-AS-45-1
Description: as §1

RKO-AS-45-1 cells [3] = test: TUNEL apoptosis assay, RKO-AS-45-1; format: cell-based, human; settings: 48 h; 4c at 5.1 μM, 5c at 19.1 μM
Description: (§2) Apoptotic cell death was measured using the APO-BrdU TUNEL assay kit (Invitrogen, Carlsbad, CA, USA). Briefly, the effect of Compounds 4c and 5c and etoposide on DNA fragmentation was determined using Hela and RKO-AS-45-1 cells. The cells were incubated with the compounds for 48 h, as described above, and fixed using a solution of ice-cold 70% ethanol. The cells were then counterstained with 5-bromo-2′-deoxyuridine 5′-triphosphate (BrdUTP) in the presence of terminal deoxynucleotidyl transferase (TdT) and stained with an anti-BrdU monoclonal antibody-PRB-1 Alexa Fluor 488 conjugate, as previously described. The loaded cells were visualized by fluorescence microscopy using a Zeiss Axiovert 200 (Carl Zeiss, Oberkochen, Germany).

HeLa cells = test: TUNEL apoptosis assay, HeLa; format: cell-based, human; settings: 48 h; 4c at 19.1 μM, 5c at 8.5 μM
Description: as §2

RKO-AS-45-1 cells [4] = test: Cytokinesis-block micronucleus assay; format: cell-based, human; settings: 3 h treatment
Description: To assess the potential of the synthetic alkaloids to induce DNA damage (chromosomal mutations) in vitro, the cytokinesis-block micronucleus assay was performed in the RKO-AS-45-1 cell line. The procedures were developed as described by Fenech, with adaptations. Briefly, the cells were seeded in 24-well plates (2.5 × 10^5 cells/well) and maintained at 37 °C in a humid atmosphere with 5% CO2. After 24 h, the cells were washed twice with PBS, and the treatments were performed in culture media without serum for three hours. Each treatment was performed in triplicate. The negative control group was treated with PBS, and a positive control group was established with the treatment of the cells with methyl methanesulfonate (MMS—400 μM).
After completing treatments with three concentrations lower than the IC50 of Compounds 4c (4.8, 9.6 and 14.3 μM) and 5c (5.9, 11.8, and 17.8 μM) diluted in culture media, the cells were washed twice with PBS, trypsinized and centrifuged for 5 min at 1200 rpm. The pellet was then resuspended in chilled hypotonic solution (1% sodium citrate) together with one drop of 1% formaldehyde and carefully homogenized with a Pasteur pipette. This cell suspension was centrifuged for 5 min at 1200 rpm and resuspended in 5 mL of fixative, methanol/acetic acid (3:1 v/v). Next, the tubes were centrifuged for 5 min, and the supernatant was discarded; the cell suspension was spread onto slides previously cleaned and covered with a film of chilled distilled water.
At the moment of cytogenetic analysis, the slides were stained with DAPI (4′,6-diamidino-2-phenylindole) diluted in phosphate buffer (0.06 M Na2HPO4 and 0.06 M KH2PO4, pH 6.8) for 2 min, washed with distilled water and analyzed under a fluorescent microscope (Zeiss, Axioscope) with an excitation filter of 365 nm and a barrier filter of 445/450 nm. Two thousands cells with a well-preserved cytoplasm were analyzed for each treatment in a blind test. Cells containing 1–3 micronuclei were scored. The criterion for the identification of MNs was according to a previous report. […]

RKO-AS-45-1 cells [5] = test: Frequency of binucleation (mitotic index); format: cell-based, human; settings: 300 cells counted
Description: The influence of the synthetic alkaloids on cell division was assessed by calculating the frequency of binucleation in RKO-AS-45-1 cells. The same slides prepared for the micronucleus assay were used, and 300 cells with a well-preserved cytoplasm were counted using fluorescence microscopy, as described above. The frequency of binucleated cells was calculated as the proportion (percentage) of cells undergoing complete cell division after exposure to digoxin and controls.

[6] = tested on: actin cytoskeleton of RKO-AS-45-1 cells; test: Actin polymerization by fluorescence microscopy; format: cell-based, human; settings: 19.1 μM, 24 h, phalloidin Alexa Fluor 488
Description: The control with non-treated cells was included in parallel. After 24 h, the cells were rinsed in phosphate-buffered saline (PBS) for 3 min, fixed in paraformaldehyde (#15,812-7, Sigma) at 4% in PBS for 1 h and permeabilized with 0.1% Triton X-100 (#17-1315-01, Plusone, GE Healthcare, Fairfield, CA, USA) in PBS for 10 min. The RKO-AS-45-1 cells were labeled with Phalloidin Alexa Fluor® 488 (#A12379, Molecular Probes, Eugene, OR, USA), and the nuclei were counterstained with 4,6-diaminidino-2-phenylindole (DAPI; Molecular Probes, #D1306) according to the manufacturer’s instructions. Image acquisition was performed using an AxioVert 200 microscope (Carl Zeiss, Oberkochen, Germany).

[7] = tested on: WI-26VA4 cells (lung fibroblast, non-cancerous); test: MTT cytotoxicity assay, WI-26VA4; format: cell-based; settings: Homo sapiens, WI26VA4, 48 h incubation, triplicate, average ± SD
Description: The cytotoxicity of the compounds was assessed with the human cell lines, HeLa (cervix adenocarcinoma ATCC# CCl-2), RKO-AS-45-1 (colon carcinoma ATCC# CRL-2579) and WI-26 VA4 (fibroblast ATCC# CCL-95.1) using the MTT (3-(4,5-dimethylthiazol-2-yl)-2,5-diphenyltetrazolium bromide) (Sigma, St. Louis, MO, USA) colorimetric method. Briefly, the cells were plated in 96-well plates (1 × 10^5 cells/well) and incubated for 24 h at 37 °C in a humidified atmosphere with 5% CO2. After 24 h, the wells were washed with culture medium (RPMI +10% inactivated fetal calf serum + 2 mM L-glutamine) and incubated with the compounds at various concentrations (0.05 to 500 μM). After 48 h of incubation, the plates were treated with MTT. The colorimetric measurement was performed at 550 nm using the microplate reader, Spectramax M5e (Molecular Devices, Sunnyvale, CA, USA). Cytotoxicity was scored as the percent reduction in absorbance versus untreated control cultures. All experiments were performed in triplicate. […] The IC50 values were calculated using OriginPro 8.0 (OriginLab Corporation, Northampton, MA, USA) software. A selectivity index (SI), corresponding to the ratio between the cytotoxic activities of each compound against the HeLa and RKO-AS-45-1 cell lines and the cytotoxicity against WI-26 VA4, was calculated as follows: SI = […].

## c1cncc(CCCOCCCCCCOC2CCCCO2)c1 (stereo not shown) [Compound 4a, 1-[3-(pyridin-3-yl)propoxy]-6-(oxan-2-yloxy)hexane]
[1]
  IC50: > 300 µM
[2]
  IC50: > 300 µM

## c1cncc(CCCOCCCCCCCCOC2CCCCO2)c1 (stereo not shown) [Compound 4b, 1-[3-(pyridin-3-yl)propoxy]-8-(oxan-2-yloxy)octane]
[1]
  IC50: 8.1 ± 2.7 µM
  Selectivity Index (SI) HeLa: 4.66
[2]
  IC50: 23.7 ± 1.7 µM
  Selectivity Index (SI) RKO AS-45-1: 1.59

## c1cncc(CCCOCCCCCCCCCCOC2CCCCO2)c1 (stereo not shown) [Compound 4c, 1-[3-(pyridin-3-yl)propoxy]-10-(oxan-2-yloxy)decane]
RKO-AS-45-1 cells [3]
  Apoptosis induction (TUNEL): promoted apoptosis
HeLa cells
  Apoptosis induction (TUNEL): promoted apoptosis
RKO-AS-45-1 cells [4]; 2.5 and 4.0 μM (two highest concentrations), 2000 binucleated cells, p < 0.05
  Micronucleus frequency vs control: significantly higher than that detected in the control; also recorded: statistically higher than that identified in the control group
RKO-AS-45-1 cells [4]; lower concentrations evaluated
  Micronucleus frequency vs control: did not induce significant alterations in the MN frequency
[1]
  IC50: 4 ± 0.8 µM
  Selectivity Index (SI) HeLa: 1.60
RKO-AS-45-1 cells [5]; two highest concentrations assessed
  Frequency of binucleation vs negative control: reduced the binucleation frequency
[2]
  IC50: 5.1 ± 1.1 µM
  Selectivity Index (SI) RKO AS-45-1: 1.25

## OCCCCCCCCCCCCOCCCc1cccnc1 [Compound 5d, 12-[3-(pyridin-3-yl)propoxy]dodecan-1-ol]
[1]
  IC50: 8.8 ± 1.9 µM
  Selectivity Index (SI) HeLa: 3.87
[2]
  IC50: 132 ± 16.8 µM
  Selectivity Index (SI) RKO AS-45-1: 0.25

## c1cncc(CCCOCCCCCCCCCCCCOC2CCCCO2)c1 (stereo not shown) [Compound 4d, 1-[3-(pyridin-3-yl)propoxy]-12-(oxan-2-yloxy)dodecane]
[1]
  IC50: 9.4 ± 0.7 µM
  Selectivity Index (SI) HeLa: 1.20
[2]
  IC50: 3.2 ± 1.7 µM
  Selectivity Index (SI) RKO AS-45-1: 3.53

## OCCCCCCCCCCOCCCc1cccnc1 [Compound 5c, 10-[3-(pyridin-3-yl)propoxy]decan-1-ol]
RKO-AS-45-1 cells [3]
  Apoptosis induction (TUNEL): promoted apoptosis
HeLa cells
  Apoptosis induction (TUNEL): promoted apoptosis
RKO-AS-45-1 cells [4]; 17.8 μM (highest concentration), 2000 binucleated cells, p < 0.05
  Micronucleus frequency vs control: significantly higher than that found in the control; also recorded: statistically higher than that identified in the control group
[1]
  IC50: 8.5 ± 2.4 µM
  Selectivity Index (SI) HeLa: 11.65
RKO-AS-45-1 cells [5]; highest concentration assessed, p < 0.05
  Frequency of binucleation / proliferation rate vs control: reduced the proliferation rate; also recorded: induced a reduction in the proliferation rate
[2]
  IC50: 19.1 ± 4.4 µM
  Selectivity Index (SI) RKO AS-45-1: 5.18
[6]
  Effect on actin cytoskeleton / actin polymerization: actin polymerization is altered; also recorded: accentuated alteration of the cellular actin network

## OCCCCCCOCCCc1cccnc1 [Compound 5a, 6-[3-(pyridin-3-yl)propoxy]hexan-1-ol]
[1]
  IC50: > 400 µM
[2]
  IC50: > 400 µM

## OCCCCCCCCOCCCc1cccnc1 [Compound 5b, 8-[3-(pyridin-3-yl)propoxy]octan-1-ol]
[7]
  IC50: 167 ± 10.5 µM
[1]
  IC50: 192 ± 10.1 µM
  Selectivity Index (SI) HeLa: 0.87
[2]
  IC50: > 300 µM

## COc1cc([C@@H]2c3cc4c(cc3[C@@H](O[C@@H]3O[C@@H]5CO[C@@H](C)O[C@H]5[C@H](O)[C@H]3O)[C@H]3COC(=O)[C@H]23)OCO4)cc(OC)c1O [Etoposide, reference compound]
[1]
  IC50: 2.7 ± 0.4 µM
[2]
  IC50: 1.4 ± 0.6 µM

— paper PMC4145321, “Synthesis and Biological Evaluation of Novel 3-Alkylpyridine Marine Alkaloid Analogs with Promising Anticancer Activity” (Marine Drugs, 2014)
